Data taken from a melting point compilation (Tetko et al.; mined from patent text by program, amines drawn as free bases though some values may be those of a salt).

SMILES | melting point [°C]
COc1ccc(C[C@H](NC(=O)OCc2ccccc2)C(=O)N2CCN(CC(=O)OC(C)(C)C)C(=O)[C@@H]2CCCNC(=O)OCc2ccccc2)cc1 | 138 to 140
CS(=O)(=O)c1ccc(-n2nc(C(F)(F)F)cc2-c2ccc(-c3ccco3)cc2)cc1C(F)(F)F | 159 to 160
COC(=O)COc1cccc2c1CCCC2=O | 82 to 83
c1ccc(Cc2ccc(-c3ccccc3)[nH]2)cc1 | 82 to 84
Cc1c(C(=O)Nc2ccc(N3CCC(N4CCOCC4)CC3)c(C#N)c2)cnn1-c1ccc(Cl)cc1 | 249 to 250
CCC1=NNC(C)=C(C(=O)OC2CCCC2)C1c1cccc([N+](=O)[O-])c1 (configuration not stated) | 110
CC1(C)CC(=O)Nc2cc3nc(-c4ccc(OS(C)(=O)=O)cc4)[nH]c3cc21 | 209 to 215
Cc1c(Br)cc(C(C)(C)C)c(O)c1C1=Nc2cc(Cl)ccc2S(=O)(=O)N1 | 270 to 271
CCOC(=O)C(Cc1ccc(C(N)=S)cc1)(NC(C)=O)C(=O)OCC | 168 to 172
CCOC(=O)c1cnc2onc(C)c2c1N(C)S(=O)(=O)c1ccc(Oc2ccncc2)cc1 | 155 to 157
CCOC(=O)CN(C(=O)C(F)(F)F)C(NC(C)C)P(=O)(O)OSCC (configuration not stated) | 85 to 87
CCCCc1nc2ccn(CC#N)c(=O)c2n1Cc1ccc(-c2ccccc2C#N)cc1 | 64
CCOC=Nc1[nH]nc(Nc2cccc(OC)c2)c1C#N | 181 to 183
O=C1NC(Cc2ccc(OCc3ccccc3)cn2)C(=O)NC1Cc1ccc(Cl)cc1 (configuration not stated) | 227 to 229
CC(C)NS(=O)(=O)c1cc(Br)c(N)c(Br)c1 | 181 to 183
O=C(O)COc1ccc2c(=O)c3cc(Cl)ccc3oc2c1Cl | 262 to 263
NC(=O)CCCCCOc1cc2ccc(-c3ccc(C(=O)O)cc3)cc2cc1C12CC3CC(CC(C3)C1)C2 | 209 to 210
COC(=O)c1ccc(Cl)cc1NC(=O)CSc1ccc(C)cc1 | 91 to 93
Cc1ccc2c3c1OC(c1ccccc1)N3C(=O)C1CCCN1C2=O (configuration not stated) | 158 to 162
O=C1OC[C@H]2[C@@H]1N(Cc1ccccc1)C(=O)N2Cc1ccccc1 (relative stereo) | 106 to 109
Cc1ccc(Nc2nc(-c3c(-c4ccccc4)noc3C)cs2)nc1 | 267 to 269
COc1ccc(C(=O)Nc2c(Cl)cncc2Cl)c2c1OCC2CC(=O)NCc1ccccc1Cl (configuration not stated) | 288 to 289
CC#CCOc1cc(Nc2ccccc2)ncn1 | 159
CCC(=CC(N)C(=O)O)CP(=O)(O)O (configuration not stated) | 176
COC(=O)c1ccc(OCCNC(=O)OCc2ccccc2)cc1Cl | 88 to 90

SMILES | melting point [°C]
O=C(O)Cc1ccc(NC(=O)c2ccc(Cl)cc2)cc1 | 252
Cn1cnc(-c2ccc(NC(=C3C(=O)Oc4ccccc43)c3ccc(C4(N)CC4)cc3)cc2)c1 | 190 to 191
O=C(OCc1ccccc1)N1CCOc2cc(Oc3cc(Cl)ncn3)ccc21 | 110
O=C1N(Cc2ccc(Br)cc2)c2ccccc2C12COc1cc3c(cc12)OCO3 (configuration not stated) | 148 to 150
COc1ccc(OCCCCCCc2c(C)n[nH]c2C)c(Cl)c1 | 150 to 151
Cc1ccccc1NNC(=O)c1ccccc1C(F)(F)F | 55 to 57
COC(=O)c1ccc(C(=O)NS(=O)(=O)c2ccccc2)cc1 | 267 to 270
CN(C(=O)c1c(Cl)cccc1Cl)c1cc(-c2ccc(Cl)cc2)on1 | 175 to 178
Cc1ccc2ccc(O)c(CC(=O)O)c2c1 | 138 to 140
CC1=NC(C)=C(c2ccc(Oc3ccc(S(C)=O)cc3)cc2)C(=O)C1Br (configuration not stated) | 262 to 263
N#Cc1ccc(C(F)(F)C(F)(F)C(F)(F)c2ccc(C#N)c(C#N)c2)cc1C#N | 133 to 135
CC(O)CN1C(=O)N(CC(C)O)C(C)(C)C1=O (configuration not stated) | 65 to 67
CS(=O)(=O)Nc1cc2oc(C(N)=O)cc(=O)c2cc1Oc1ccccc1 | > 250
O=C(Nc1ccccc1)Nc1ccnc(C(F)(F)F)c1 | 169 to 171
Cc1ccc(-c2nnc(N3CCC(C)CC3)nc2-c2ccc(C)cc2)cc1 | 140 to 142
COC(=O)c1cnc(CO)n1C(c1ccccc1)c1ccccc1 | 160
COc1cc(OC)c2c(c1)OC(C)(C)CC2NNc1ncnc2c1ncn2C1OC(CO)C(O)C1O (configuration not stated) | 111 to 113
CCCCCCN(C)c1ccc(C=C2SC(=S)N(CCNC(=O)C(F)(F)F)C2=O)cc1 | 136 to 139
Cc1cc([N+](=O)[O-])ccc1Oc1ccc(C(C)(C)c2cccc(C(C)(C)c3ccc(Oc4ccc([N+](=O)[O-])cc4C)cc3)c2)cc1 | 116 to 118
Cc1ccc(Cl)cc1N1CN(C)CN(C)C1=S | 157 to 159
CC1Cc2cc(NS(C)(=O)=O)ccc2OC12CCC(N1CCc3ccccc3C1)CC2 (configuration not stated) | 135
CC(C)(C)c1cc(-c2nc3ccc(O)cc3o2)ccc1O | 220 to 222
COC(=O)c1ccc(C(=O)NCCNC(=O)c2ccc(C(=O)OC)cc2)cc1 | 297 to 299
CN1C(C)(C)CC(OC(=O)NNC(=O)OC2CC(C)(C)N(C)C(C)(C)C2)CC1(C)C | 189 to 191
COc1cc(OC)cc(SSc2cc(OC)cc(OC)c2)c1 | 152 to 160

SMILES | melting point [°C]
O=C(O)C1=Cc2cc(CO)ccc2OC1CC(F)(F)F (configuration not stated) | 178 to 181
O=C(NCCCn1ccnc1)c1ccoc1 | 127 to 129
Fc1ccc(-n2nnc3cccnc32)c(F)c1 | 132
CCOC(=O)CSc1nc(=O)[nH]cc1F | 156
CC(=O)NNC(=N)c1ncc([N+](=O)[O-])n1C | 294
CC12CCC3c4ccc(C(=O)O)cc4CCC3C1CCC2C(=O)c1cccnc1 (configuration not stated) | 189 to 192
Nc1nc(-c2ccc(CCCCN3CCN(c4cccc(C(F)(F)F)c4)CC3)cc2)cs1 | 174 to 179
C=CCN(c1ccccc1C=C(SC)S(C)=O)c1c(Cl)cccc1Cl (configuration not stated) | 104 to 107
CCCNC(=O)c1ccc(C)c(-c2nc(NCCN(C)C(=O)OC(C)(C)C)nc3c2ccc(=O)n3-c2c(F)cccc2F)c1 | 115 to 118
COc1cc(C(C)=O)ccc1OC/C=C/CN1CCC(c2noc3cc(F)ccc23)CC1 | 57 to 59
COc1c(O)nc(-c2ccc(OCc3ccccc3)cc2)nc1O | 251 to 252
Oc1cc2c3cc(O)c(O)cc3n(Cc3ccccc3)c2cc1O | 266 to 271
CCC(C)(C)NC(Nc1cc(Cl)cc(Cl)c1)=C(C#N)S(=O)(=O)c1ccc(Cl)cc1 | 189 to 192
CC(C)(C(=O)O)n1c(=O)[nH]c2cccc(F)c2c1=O | 258 to 260
Cn1c2ccc([N+](=O)[O-])cc2c2cc(C(=O)N3CCOCC3)sc21 | 250 to 252
CCn1c(COCc2ccc(OC)cc2)nc(C(C)C)c1Sc1cc(Cl)cc(Cl)c1 | 120 to 121
CCCn1c(=O)c2c(nc(/C=C/c3ccco3)n2C)n(CCC)c1=O | 161 to 162
CCOc1nc2ccccc2n2cc(C(=O)O)nc12 | 220 to 222
Cc1c(-c2ccccc2)c(OCc2ncnn2C)nn2c(-c3ccccc3)nnc12 | 195
CCc1ccc(-c2ccc(CCc3ccc(C(F)(F)F)cc3)cc2)cc1 | 128
COC(=O)C(NCC(=O)c1ccccc1)C(C)C (racemic) | 32.5 to 50.8
O=C1OCC(CCO)(c2ccc(Cl)c(Cl)c2)CN1Cc1ccccc1 (configuration not stated) | 143
O=C(O)c1ccc(OCCCOc2ccccc2)cc1C(=O)O | 155 to 159
O=C(NC1(c2cccc(F)c2)CCC1)OCc1ccccc1 | 81 to 82
Cc1cc(NCc2ccccc2)c(C)c2c1OCC2c1ccc(C(C)C)cc1 (configuration not stated) | 82 to 83

SMILES | melting point [°C]
C#Cc1cnc2sc(SCCCCCCC)nn2c1=O | 140 to 142
CCC(C=CC(C)C1CCC2C3CCC4=CC(=O)CCC4(C)C3CCC12C)C(C)C (configuration not stated) | 121 to 123
O=C(c1ccc(-n2nc(-c3ccccc3O)nc2-c2ccccc2O)cc1)N1CCOCC1 | 157 to 160
CCC1CCCCCc2c1oc(=O)c(C(c1ccccc1)C1CC1)c2O (configuration not stated) | 94 to 98
O=C(NC(=O)c1cc(Cl)cc(Cl)c1)NC1CN2CCC1CC2 (configuration not stated) | 253 to 254
CC(=O)Nc1ccc(Sc2cccn3nc(Nc4ccc(C5CCN(C(=O)OC(C)(C)C)CC5)cc4)nc23)cc1 | 226 to 228
CCCCNC1CC(C)(C)N(c2nc(N3CCOCC3)nc(N3CCOCC3)n2)C(C)(C)C1 | 82 to 87
COC(=O)c1ccc(C=CC(=O)N2CCc3c([nH]c4ccccc34)C2c2ccc3c(c2)OCO3)cc1 (configuration not stated) | 211
CCc1cccc2c(/C=C(\C)C(=O)O)cc(OC)c(OCOC)c12 | 127 to 128
CC(=O)Nc1cc(Oc2ccc3c(C(=O)Nc4ccc(CN5CCN(C(C)C)CC5)c(C(F)(F)F)c4)cccc3c2)ncn1 | 210 to 213
CCN(CC)c1ccc(-c2cn(-c3ccc(C4=C(C#N)C(=C(C#N)C#N)OC4(C)C)cc3)nn2)cc1 | 275
COC(=O)c1ccc(Cn2nc(O)c3ccc(NC(=O)CC4CCCC4)cc32)c(OC)c1 | 242 to 245
COC(=O)c1ccc(OC)c2oc(C)cc12 | 127 to 129
C[C@H](NC(=O)c1c[nH]c2ncc(C3CC3)nc12)C(C)(C)CS(C)(=O)=O | 232 to 234
COc1ccc(CNc2ccc(Cl)cc2C(=O)C(F)(F)F)cc1 | 82 to 84
CC(C)(CCl)C(=O)NCc1ccc(Cl)cc1 | 97 to 98
COc1cc(C=CC(=O)c2ccc(I)cc2O)cc(OC)c1OCc1ccccc1 | 124 to 125
Cc1ccc(S(=O)(=O)NOC(C)C)cc1 | 104
N#CCCNC(=O)c1cccc(-c2ccc3c(c2)N(Cc2ccc(Cl)cc2Cl)CC3)c1 | 148 to 149
CCCC1C/C(=C\C(=O)NC2CC2)c2cc(F)ccc21 (configuration not stated) | 94 to 97
CNc1ncc2cc(-c3ccccc3)c(NC)nc2n1 | 204 to 205
CC(c1cccc(C2(c3ccccc3)OCCO2)c1)c1nc(N)no1 (configuration not stated) | 112 to 114
